# Patent publication US7045526B2, “Substituted 4-amino-2-aryl-tetrahydroquinazolines, their preparation, their use and pharmaceutical preparations comprising them” (Sanofi-Aventis Deutschland GmbH, priority 1999, dated 2006)
# Target: T1, soluble guanylate cyclase (sGC) (Bos taurus, UniProt P16068+P19687)
# T1 construct: The sGC employed had been isolated from bovine lung; from tissue; host or cells: bovine lung
# T1 sequence (P16068 1-619): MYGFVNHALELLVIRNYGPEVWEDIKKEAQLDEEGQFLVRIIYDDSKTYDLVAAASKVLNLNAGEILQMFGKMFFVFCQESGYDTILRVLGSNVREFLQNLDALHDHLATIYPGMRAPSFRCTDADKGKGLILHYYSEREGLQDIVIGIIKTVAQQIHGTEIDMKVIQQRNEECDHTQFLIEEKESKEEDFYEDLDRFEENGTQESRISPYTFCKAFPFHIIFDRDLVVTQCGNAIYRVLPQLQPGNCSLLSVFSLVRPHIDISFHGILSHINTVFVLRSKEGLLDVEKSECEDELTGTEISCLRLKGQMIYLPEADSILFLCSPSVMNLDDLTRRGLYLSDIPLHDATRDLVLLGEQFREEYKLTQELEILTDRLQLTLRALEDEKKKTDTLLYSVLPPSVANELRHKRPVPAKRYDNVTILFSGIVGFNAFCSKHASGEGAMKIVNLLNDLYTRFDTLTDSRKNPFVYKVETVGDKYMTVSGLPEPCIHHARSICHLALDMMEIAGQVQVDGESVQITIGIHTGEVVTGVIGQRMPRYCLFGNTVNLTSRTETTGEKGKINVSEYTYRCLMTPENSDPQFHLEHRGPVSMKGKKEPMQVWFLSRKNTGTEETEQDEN
# T1 sequence (P19687 1-691): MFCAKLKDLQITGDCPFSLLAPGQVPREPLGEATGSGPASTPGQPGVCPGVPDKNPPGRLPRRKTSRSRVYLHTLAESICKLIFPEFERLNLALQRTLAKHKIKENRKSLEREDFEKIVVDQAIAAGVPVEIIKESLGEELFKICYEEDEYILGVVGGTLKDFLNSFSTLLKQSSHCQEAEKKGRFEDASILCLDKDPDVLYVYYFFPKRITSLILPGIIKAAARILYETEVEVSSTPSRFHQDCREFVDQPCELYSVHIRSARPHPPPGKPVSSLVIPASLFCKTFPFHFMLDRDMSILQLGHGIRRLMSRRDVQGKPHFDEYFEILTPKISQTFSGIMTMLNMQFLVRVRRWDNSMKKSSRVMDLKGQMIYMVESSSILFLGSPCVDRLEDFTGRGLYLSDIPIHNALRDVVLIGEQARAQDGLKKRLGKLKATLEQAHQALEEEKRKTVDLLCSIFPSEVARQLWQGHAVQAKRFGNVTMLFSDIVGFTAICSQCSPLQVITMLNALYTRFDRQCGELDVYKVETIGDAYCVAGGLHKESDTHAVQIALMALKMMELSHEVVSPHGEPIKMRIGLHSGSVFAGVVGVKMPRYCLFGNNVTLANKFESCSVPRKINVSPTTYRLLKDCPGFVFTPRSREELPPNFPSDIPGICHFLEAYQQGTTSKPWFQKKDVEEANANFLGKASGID
# Experiment: Activation of soluble guanylate cyclase (cGMP enzyme immunoassay)
# Format: biochemical
# Settings: test substance 50 μM; sGC isolated from bovine lung; 37° C., 15 to 20 minutes; [cGMP]test substance/[cGMP]control (basal enzyme activity)
# Description: Activation of Soluble Guanylate Cyclase
# The activation of soluble guanylate cyclase (sGC), which catalyzes the conversion of guanosine triphosphate (GTP) to cyclic guanosine monophosphate (cGMP) and pyrophosphate, by the compounds according to the invention was quantified with the aid of an enzyme immunoassay (EIA) from Amersham. For this, the test substances were first incubated with sGC in microtiter plates and then the quantity of the resulting cGMP was determined.
# The sGC employed had been isolated from bovine lung (see Methods in Enzymology, Volume 195, p. 377). The test solutions (100 μl per well) contained 50 mM triethanolamine (TEA) buffer (pH 7.5), 3 mM MgCl2, 3 mM reduced glutathione (GSH), 0.1 mM GTP, 1 mM 3-isobutyl-1-methylxanthine (IBMX), suitably diluted enzyme solution and the test substance or, in the control experiments, solvent. […] The absorption of the samples was measured at 450 nm (reference wavelength 620 nm) in a microtiter plate reading apparatus. The cGMP concentration was determined by means of a calibration curve, which was obtained under the same experimental conditions. The activation of the sGC by a test substance is given as n-fold stimulation of the basal enzyme activity which was found in the control experiments (with solvent instead of test substance), calculated according to the formula: n-fold stimulation=[cGMP]test substance/[cGMP]control.
compound,measurement,value
"CS(=O)(=O)O.O[C@H]1CC[C@H](Nc2nc(-c3ccc(Cl)cc3)nc3c2CCCC3)CC1 [Example 26, 2-(4-Chlorophenyl)-4-(trans-4-hydroxycyclohexylamino)-5,6,7,8-tetrahydroquinazoline methanesulfonic acid salt]",n-fold stimulation (at c = 50 μM),28 n-fold
